Active and inactive are the calls of the source. No cut-off for these calls is given here.
Assays:
[1] = molecular target: T1, Son of sevenless homolog 1 (Homo sapiens) (UniProt Q07889); assay: Agonist activity at SOS1 in human HeLa cells expressing wild type KRAS assessed as increase in p-ERK1/2 level at T202/Y204 residue over 25 uM incubated for 30 mins by Western blot analysis; format: cell-based
T1 sequence (whole entry): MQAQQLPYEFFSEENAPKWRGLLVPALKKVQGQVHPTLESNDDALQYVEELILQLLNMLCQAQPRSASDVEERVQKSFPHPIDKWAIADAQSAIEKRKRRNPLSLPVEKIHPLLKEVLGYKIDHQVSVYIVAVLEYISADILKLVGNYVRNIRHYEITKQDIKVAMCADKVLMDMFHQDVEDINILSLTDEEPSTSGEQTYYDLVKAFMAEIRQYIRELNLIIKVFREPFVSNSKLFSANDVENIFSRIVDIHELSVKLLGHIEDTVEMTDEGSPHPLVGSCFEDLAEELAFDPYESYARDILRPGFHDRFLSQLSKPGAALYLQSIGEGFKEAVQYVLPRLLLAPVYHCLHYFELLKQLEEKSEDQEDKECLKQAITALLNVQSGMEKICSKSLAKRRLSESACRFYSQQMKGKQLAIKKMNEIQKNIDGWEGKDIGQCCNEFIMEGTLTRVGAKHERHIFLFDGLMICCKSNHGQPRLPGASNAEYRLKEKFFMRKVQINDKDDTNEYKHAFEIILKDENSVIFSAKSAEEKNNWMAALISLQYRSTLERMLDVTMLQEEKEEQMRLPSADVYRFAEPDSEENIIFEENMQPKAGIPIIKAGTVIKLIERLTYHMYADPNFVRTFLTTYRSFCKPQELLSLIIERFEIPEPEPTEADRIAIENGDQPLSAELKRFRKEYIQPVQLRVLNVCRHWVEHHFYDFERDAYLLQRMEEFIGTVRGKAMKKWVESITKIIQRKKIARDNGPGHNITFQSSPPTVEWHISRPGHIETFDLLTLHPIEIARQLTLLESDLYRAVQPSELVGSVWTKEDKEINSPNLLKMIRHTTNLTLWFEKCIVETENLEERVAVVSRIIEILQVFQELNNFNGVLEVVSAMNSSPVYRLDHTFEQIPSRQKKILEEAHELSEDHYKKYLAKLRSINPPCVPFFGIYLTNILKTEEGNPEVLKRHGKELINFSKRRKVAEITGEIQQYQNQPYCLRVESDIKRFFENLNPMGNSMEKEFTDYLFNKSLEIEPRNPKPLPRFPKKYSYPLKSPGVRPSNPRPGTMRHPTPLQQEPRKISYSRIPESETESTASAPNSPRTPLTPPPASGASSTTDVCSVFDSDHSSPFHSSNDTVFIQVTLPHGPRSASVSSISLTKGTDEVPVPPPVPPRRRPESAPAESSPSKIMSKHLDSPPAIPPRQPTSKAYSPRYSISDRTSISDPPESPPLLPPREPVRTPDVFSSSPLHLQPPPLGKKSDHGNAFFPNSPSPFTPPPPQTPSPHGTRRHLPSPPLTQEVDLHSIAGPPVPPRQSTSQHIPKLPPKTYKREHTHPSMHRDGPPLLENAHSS

[2] = molecular target: T1, Son of sevenless homolog 1 (Homo sapiens); assay: Binding affinity to SOS1 in human NCI-H358 cells expressing KRAS G12C mutant assessed as increase in thermal stability at 37 to 52 degreeC at 10 uM incubated for 1 hr by CETSA; format: cell-based
HeLa [3] = assay: Binding affinity to Pan-Ras GTPase in human HeLa cells expressing wild type KRAS assessed as increase in thermal stability at 37 to 60 degreeC at 10 uM incubated for 1 hr by CETSA; format: cell-based
[4] = molecular target: T1, Son of sevenless homolog 1 (Homo sapiens); assay: Agonist activity at SOS1 in human HeLa cells with siRNA-mediated SOS1 knockdown assessed as activation of p-ERK1/2 at <25 uM incubated for 30 mins by immunoblot analysis; format: cell-based
NCI-H358 [5] = assay: Antiproliferative activity against human NCI-H358 cells expressing KRAS G12C mutant assessed as inhibition of cell growth incubated for 72 hrs by CCK-8 assay; format: functional, cell-based; details: NCI-H358, 72 h
HeLa [6] = assay: Antiproliferative activity against human HeLa cells expressing wild type KRAS assessed as inhibition of cell growth incubated for 72 hrs by CCK-8 assay; format: functional, cell-based
[7] = molecular target: T1, Son of sevenless homolog 1 (Homo sapiens); assay: Agonist activity at SOS1 in human HeLa cells assessed as activation of p-ERK1/2 at 3.1 to 25 uM incubated for 30 mins by immunoblot analysis; format: cell-based; details: filed as agonist, dose 3.1-25 µM
NCI-H358 [8] = assay: Binding affinity to Pan-Ras GTPase in human NCI-H358 cells expressing KRAS G12C mutant assessed as increase in thermal stability at 37 to 60 degreeC at 10 uM incubated for 1 hr by CETSA; format: cell-based
[9] = molecular target: T2, Son of sevenless homolog 1 (Homo sapiens, UniProt Q07889); assay: Agonist activity at SOS1 in human HeLa cells expressing wild type KRAS assessed as increase in p-ERK level incubated for 30 mins by Western blot analysis; format: cell-based
T2 sequence (Q07889 whole entry): T1 sequence (whole entry)

A549 = assay: Antiproliferative activity against human A549 cells expressing KRAS G12S mutant assessed as inhibition of cell growth incubated for 72 hrs by CCK-8 assay; format: functional, cell-based; details: A549, 72 h
[10] = molecular target: T1, Son of sevenless homolog 1 (Homo sapiens); assay: Agonist activity at SOS1 in human HeLa cells expressing wild type KRAS assessed as increase in p-ERK1/2 level at T202/Y204 residue at 0 to 12.5 uM incubated for 30 mins by Western blot analysis; format: cell-based; details: filed as agonist, dose 0-12.5 µM
[11] = molecular target: T1, Son of sevenless homolog 1 (Homo sapiens); assay: Binding affinity to SOS1 in human HeLa cells expressing wild type KRAS assessed as increase in thermal stability at 37 to 52 degreeC at 10 uM incubated for 1 hr by CETSA; format: cell-based
[12] = molecular target: T1, Son of sevenless homolog 1 (Homo sapiens); assay: Agonist activity at SOS1 in human HeLa cells expressing wild type KRAS assessed as increase in ERK1/2 phosphorylation by measuring increase in RAS-GTP level incubated for 30 mins by Western blot based pull down assay; format: cell-based; details: filed as agonist, dose 0-25 µM
NCI-H358 [13] = assay: Activation of RAS signaling pathway in human NCI-H358 cells expressing KRAS G12C mutant assessed as upregulation of p-ERK level incubated for 4 hrs by Western blot analysis; format: cell-based; details: filed as activator, dose 0-20 µM

Row | EC50 [9] [µM] | Compound | also measured
1 | 1.53 | C=CC(=O)N1CC2(CC(n3nc(C(=O)Nc4ccc5c(cnn5C)c4)c4cc(-c5cn[nH]c5)ccc43)C2)C1 | Activity [1]: inactive; Activity [2]: Active; Activity (HeLa [3]): inactive; Activity [4]: inactive; IC50 (NCI-H358 [5]): 6.04 µM; IC50 (HeLa [6]): 9.19 µM; Activity [7]: Active; Activity (NCI-H358 [8]): inactive; IC50 (A549): 9.61 µM; Activity [10]: Active; Activity [11]: Active; Activity [12]: Active
2 | > 20 | Cn1ncc2cc(-c3nn(C4CC5(CNC5)C4)c4ccc(-c5cn[nH]c5)cc34)ccc21 | –
3 | > 20 | C=CC(=O)N1CC2(CC(n3nc(C(=O)Nc4ccc5[nH]ncc5c4)c4cc(-c5cn[nH]c5)ccc43)C2)C1 | –
4 | 5.45 | C=CC(=O)N1CC2(CC(n3nc(C(=O)Nc4ccc5cnn(C)c5c4)c4cc(-c5cn[nH]c5)ccc43)C2)C1 | –
5 | > 20 | C=CC(=O)N1CC2(CC(n3nc(C(=O)N4CCc5cc(OC)ccc5C4)c4ccccc43)C2)C1 | –
6 | > 20 | C=CC(=O)N1CC2(CC(n3nc(C(=O)Nc4ccc5[nH]ncc5c4)c4ccccc43)C2)C1 | –
7 | 9.01 | C=CC(=O)N1CC2(CC(n3nc(-c4ccc5c(cnn5C)c4)c4cc(-c5cn[nH]c5)ccc43)C2)C1 | –
8 | > 20 | C=CC(=O)N1CC2(CC(n3nc(C(=O)Nc4ccc5c(cnn5C)c4)c4ccccc43)C2)C1 | –
9 | > 20 | C=CC(=O)N1CC2(CC(n3nc(C(=O)N4CCCc5cc(OC)ccc54)c4ccccc43)C2)C1 | –
10 | 4.37 | CCC(=O)N1CC2(CC(n3nc(C(=O)Nc4ccc5c(cnn5C)c4)c4cc(-c5cn[nH]c5)ccc43)C2)C1 | –
11 | > 20 | Cn1cc(-c2ccc3c(c2)c(-c2ccc4c(cnn4C)c2)nn3C2CC3(CNC3)C2)cn1 | –
12 | 14.2 | C=CC(=O)N1CC2(CC(n3nc(-c4ccc5c(cnn5C)c4)c4cc(-c5c[nH]nc5C)c(Cl)cc43)C2)C1 | Activity (NCI-H358 [13]): Dose-Dependent Effect

Row | Compound | EC50 [9] [µM] | also measured
13 | Cn1ncc2cc(NC(=O)c3nn(C4CC5(CNC5)C4)c4ccc(-c5cn[nH]c5)cc34)ccc21 | > 20 | –

Reference: ChEMBL document CHEMBL5390210, “Discovery of novel indazole derivatives as SOS1 agonists that activate KRAS signaling” (Bioorg Med Chem, 2023)
